Assay results as given in patent US20080076147A1, “BIOFILM SAMPLING DEVICE” (BOARD OF TRUSTEES OF SOUTHERN ILLINOIS UNIVERSITY, priority 2006, published 2008).

Assays:
Experiment in all cases: Biocide kill of planktonic cells and biofilm on vascular catheter (serum flow model)
Type in all cases: cell-based
Acinetobacter baumanii = details: 5 to 60 minutes
Excerpt: (§1) A system as shown in FIG. 6 was used in this study. Serum and a biocide were placed in sealed bottles as the first fluid source 505 and the second fluid source 509, respectively. The fluid sources were connected to a pump 515 by conventional IV tubing. A second pump 531 was used to deliver the fluid mixture to the vascular catheter 3 positioned in the sampling apparatus 1.
Initially, only the first fluid source, serum inoculated with Acinetobacter baumanii (10×10^9 CFU/ml), was used to contaminate the catheter with planktonic cells. The inoculated fluid continuously flowed through IV tubing directly through the catheter for […] to form a layer of planktonic cells on the catheter. […] The segments were transferred to test tubes containing one ml saline and the adherent cells were dislodged by sonication in an aquasonic device, vortexed for about one minute, and then counted on Tropic soya Agar. The number of viable cells were determined for each catheter and were compared to the number of viable cells in control samples (i.e., biocide-free serum) to calculate the biocide concentration required to kill 50% of the bacteria in the biofilm at the same time interval. […] In addition to plating cells on agar and counting the number of colonies, the amount of biofilm formed can be determined by a semiquantitive microtiter plate method. […]

Burkholderia cepacia = details: 5 to 60 minutes; for biofilm kill (biocide concentration required to kill 50% of bacteria that grew in the biofilm): biofilm on vascular catheter, FIG. 11B; for planktonic cell kill (biocide concentration required to kill 100% of bacteria present as planktonic cells): planktonic cells on vascular catheter, FIG. 11A
Excerpt: as §1
(§2) Initially, only the first fluid source, serum inoculated with Acinetobacter baumanii (10×10^9 CFU/ml), was used to contaminate the catheter with planktonic cells. The inoculated fluid continuously flowed through IV tubing directly through the catheter for […] to form a layer of planktonic cells on the catheter. Fluid flow was then stopped and the tubing was then reconfigured as shown in FIG. 6 so that the second fluid source could be introduced. In these test runs, the first fluid source was inoculated with the same concentration of bacteria, and the second fluid source was a biocide (16-16,000 ppm) selected from hydrogen peroxide (H2O2), sodium hypochlorite (SHC), peracetic acid (PAA) and gluteraldehyde (GLT). The fluid mixture continuously flowed through the catheter for 5, 10, 15, 30, 45 or 60 minutes before fluid flow was discontinued to determine bacterial resistance of the planktonic cells on the catheter. In all, six runs were completed for each of four different biocides. After each run, the test catheter was then cut aseptically into 1 cm segments. The segments were transferred to test tubes containing one ml saline and the adherent cells were dislodged by sonication in an aquasonic device, vortexed for about one minute, and then counted on Tropic soya Agar. The number of viable cells were determined for each catheter and were compared to the number of viable cells in control samples (i.e., biocide-free serum) to calculate the biocide concentration required to kill 50% of the bacteria in the biofilm at the same time interval. Instead of saline, other appropriate buffer solutions can be used. In addition to plating cells on agar and counting the number of colonies, the amount of biofilm formed can be determined by a semiquantitive microtiter plate method. For example, adherent cells can be dislodged from test catheters as described above. The aliquots of solutions containing the cells from each catheter piece can then be added separately to wells of a 96-well tissue culture plate and incubated at 37° C. for 24 h. After several (e.g., three) washes with PBS, any remaining biofilm is stained with safranin O dye for 1 min and washed with PBS again. Optical density at 492 nm is determined with a 96-well plate spectrometer reader. For each time point, an aliquot without biocide is a positive control. Percent inhibition of biofilm accumulation can be determined from the formula (A492positive−A492biocide)/(A492positive−A492)×100%, Such plating methods are well known to one skilled in the art and could be modified as desired for analysis of the biofilm.
(§3) For determination of the bacterial resistance of the biofilm formed on the catheter, the method described above was repeated using the same conditions except that the inoculated fluid continuously flowed through the catheter for two hours before fluid flow was discontinued to form a biofilm on the catheter.
The experiment was repeated as described above, except that Burkholderia cepacia (1×10^9 CFU/ml) was used to inoculate the serum.

Escherichia coli = details: biofilm on vascular catheter, over all time periods (5 to 60 minutes), FIG. 12B
Enterococcus faecalis = details: serum, 5 to 60 minutes
[1] = test system: methicillin resistant Staphylococcus aureus (MRSA); details: biofilm on vascular catheter, 5 to 60 minutes, FIG. 14B
Staphylococcus epidermis = details: 5 to 60 minutes; for biofilm kill (biocide concentration required to kill 50% of bacteria that grew in the biofilm): biofilm on vascular catheter, FIG. 15B; for planktonic cell kill (biocide concentration required to kill 100% of bacteria present as planktonic cells): planktonic cells on vascular catheter, FIG. 15A
Excerpt: as §1, §2, §3
The experiment was repeated as described above, except that Staphylococcus epidermis (1×10^9 CFU/ml) was used to inoculate the serum.

Pseudomonas aeruginosa = details: 5 to 60 minutes; for biofilm kill (biocide concentration required to kill 50% of bacteria that grew in the biofilm): biofilm on vascular catheter, FIG. 16B; for planktonic cell kill (biocide concentration required to kill 100% of bacteria present as planktonic cells): planktonic cells on vascular catheter, FIG. 16A
Excerpt: as §1, §2, §3
The experiment was repeated as described above, except that Pseudomonas aeruginosa (1×10^9 CFU/ml) was used to inoculate the serum.

[2] = test system: Stenotrophomonas maltophilia; details: 5 to 60 minutes; for biofilm kill (biocide concentration required to kill 50% of bacteria that grew in the biofilm): biofilm on vascular catheter, FIG. 17B; for planktonic cell kill (biocide concentration required to kill 100% of bacteria present as planktonic cells): planktonic cells on vascular catheter, FIG. 17A
Excerpt: as §1, §2, §3
The experiment was repeated as described above, except that Stenotrophomonas maltophilia (1×10^9 CFU/ml) was used to inoculate the serum.

| Structure (SMILES) | biofilm kill (biocide concentration required to kill 50% of bacteria that grew in the biofilm) (Acinetobacter baumanii; biofilm on vascular catheter, FIG. 10B) | biofilm kill (biocide concentration required to kill 50% of bacteria that grew in the biofilm) (Burkholderia cepacia) | planktonic cell kill (biocide concentration required to kill 100% of bacteria present as planktonic cells) (Burkholderia cepacia) | biofilm kill (biocide concentration required to kill 50% of bacteria that grew in the biofilm) (Escherichia coli) | biofilm kill (biocide concentration required to kill 50% of bacteria that grew in the biofilm) (Enterococcus faecalis; biofilm on vascular catheter, FIG. 13B) | planktonic cell kill (biocide concentration required to kill 100% of bacteria present as planktonic cells) (Enterococcus faecalis; planktonic cells on vascular catheter, FIG. 13A) | biofilm kill (biocide concentration required to kill 50% of bacteria that grew in the biofilm) [1] | biofilm kill (biocide concentration required to kill 50% of bacteria that grew in the biofilm) (Staphylococcus epidermis) | planktonic cell kill (biocide concentration required to kill 100% of bacteria present as planktonic cells) (Staphylococcus epidermis) | biofilm kill (biocide concentration required to kill 50% of bacteria that grew in the biofilm) (Pseudomonas aeruginosa) | planktonic cell kill (biocide concentration required to kill 100% of bacteria present as planktonic cells) (Pseudomonas aeruginosa) | biofilm kill (biocide concentration required to kill 50% of bacteria that grew in the biofilm) [2] | planktonic cell kill (biocide concentration required to kill 100% of bacteria present as planktonic cells) [2] | planktonic cell kill (biocide concentration required to kill 100% of bacteria present as planktonic cells) (Acinetobacter baumanii; planktonic cells on vascular catheter, FIG. 10A) |
| --- | --- | --- | --- | --- | --- | --- | --- | --- | --- | --- | --- | --- | --- | --- |
| CC(=O)OO [PAA, peracetic acid] | most effective | most effective | performed comparably and were more effective than hydrogen peroxide | most effective | most effective | most effective | most effective | most effective | performed similarly in planktonic cell kill and outperformed hydrogen peroxide | most effective | performed comparably and were more effective than hydrogen peroxide and SHC | most effective | GLT was somewhat more effective in killing planktonic cells as compared to SHC or PAA | – |
| O=CCCCC=O [GLT, gluteraldehyde] | – | nearly identical effect | performed comparably and were more effective than hydrogen peroxide | least effective | – | – | PAA>GLT>hydrogen peroxide>SHC | least effective | performed similarly in planktonic cell kill and outperformed hydrogen peroxide | PAA>SHC>GLT>hydrogen peroxide | performed comparably and were more effective than hydrogen peroxide and SHC | nearly identical effect | somewhat more effective in killing planktonic cells as compared to SHC or PAA and considerably more effective than hydrogen peroxide | most effective |
